Measurements as given in PubChem BioAssay AID248 (DTP/NCI, 2004).
Values joined by “and” are separate entries in the source; they are usually repeats but may differ in a detail not shown here. Equal values may be shown once. Inconclusive results and toxic doses are left out. Rule as the data show it: active = T/C of 150% or more; inactive = T/C below 125%.

System: L1210 leukemia ip in BDF1 mice, survival T/C
Test: NCI In Vivo Anticancer Drug Screen. Data for tumor model L1210 Leukemia (intraperitoneal) in B6D2F1 (BDF1) mice
Settings: endpoint: mean survival time, higher = longer survival
Outline: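 Read-out is survival time, reported as the treated-group measurement over the vehicle-control measurement.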

[1] = dose: 100.0 mg/kg/injection, schedule: Q01DX001 (ip), vehicle: Klucel (hydroxypropylcellulose) (HPC)
[2] = dose: 100.0 mg/kg/injection, schedule: Q04DX003 (ip), vehicle: Klucel (hydroxypropylcellulose) (HPC)
[3] = dose: 200.0 mg/kg/injection, schedule: Q01DX001 (ip), vehicle: Klucel (hydroxypropylcellulose) (HPC)
[4] = dose: 200.0 mg/kg/injection, schedule: Q04DX003 (ip), vehicle: Klucel (hydroxypropylcellulose) (HPC)
[5] = dose: 400.0 mg/kg/injection, schedule: Q01DX001 (ip), vehicle: Klucel (hydroxypropylcellulose) (HPC)
[6] = dose: 400.0 mg/kg/injection, schedule: Q04DX003 (ip), vehicle: Klucel (hydroxypropylcellulose) (HPC)
[7] = dose: 100.0 mg/kg/injection, schedule: Q01DX001 (ip), vehicle: saline
[8] = dose: 100.0 mg/kg/injection, schedule: Q04DX003 (ip), vehicle: saline
[9] = dose: 200.0 mg/kg/injection, schedule: Q01DX001 (ip), vehicle: saline
[10] = dose: 400.0 mg/kg/injection, schedule: Q01DX001 (ip), vehicle: saline
[11] = dose: 100.0 mg/kg/injection, schedule: Q04DX003 (ip), vehicle: saline with Tween-80
[12] = dose: 200.0 mg/kg/injection, schedule: Q04DX003 (ip), vehicle: saline with Tween-80
[13] = dose: 400.0 mg/kg/injection, schedule: Q04DX003 (ip), vehicle: saline with Tween-80
[14] = dose: 100.0 mg/kg/injection, schedule: Q01DX009 (ip), vehicle: Klucel (hydroxypropylcellulose) (HPC)
[15] = dose: 200.0 mg/kg/injection, schedule: Q01DX009 (ip), vehicle: Klucel (hydroxypropylcellulose) (HPC)
[16] = dose: 400.0 mg/kg/injection, schedule: Q01DX009 (ip), vehicle: Klucel (hydroxypropylcellulose) (HPC)
[17] = dose: 50.0 mg/kg/injection, schedule: Q01DX001 (ip), vehicle: carboxymethylcellulose (CMC)
[18] = dose: 100.0 mg/kg/injection, schedule: Q01DX001 (ip), vehicle: carboxymethylcellulose (CMC)
[19] = dose: 200.0 mg/kg/injection, schedule: Q01DX001 (ip), vehicle: carboxymethylcellulose (CMC)
[20] = dose: 400.0 mg/kg/injection, schedule: Q01DX001 (ip), vehicle: carboxymethylcellulose (CMC)
[21] = dose: 100.0 mg/kg/injection, schedule: Q01DX009 (ip), vehicle: saline with Tween-80
[22] = dose: 200.0 mg/kg/injection, schedule: Q01DX009 (ip), vehicle: saline with Tween-80
[23] = dose: 400.0 mg/kg/injection, schedule: Q01DX009 (ip), vehicle: saline with Tween-80

Measured: T/C

[N-]=[N+]=C1c2ccccc2-c2ccccc21
inactive: [1] 94 % of control | [2] 104 % of control | [3] 93 % of control | [4] 90 % of control | [5] 91 % of control | [6] 101 % of control

N=c1ncn(C2OC(COP(=O)(O)O)C(O)C2O)c2nc[nH]c12 (stereo unspecified)
inactive: dose: 1.56 mg/kg/injection, schedule: Q01DX005 (ip), vehicle: water 102 % of control | dose: 6.25 mg/kg/injection, schedule: Q01DX005 (ip), vehicle: water 103 % of control | dose: 12.5 mg/kg/injection, schedule: Q01DX005 (ip), vehicle: water 105 % of control | dose: 25.0 mg/kg/injection, schedule: Q01DX005 (ip), vehicle: water 94 % of control

CCC1SC(=S)N(C(=O)c2ccc([N+](=O)[O-])cc2)C1CC (stereo unspecified)
inactive: dose: 25.0 mg/kg/injection, schedule: Q04DX002 (ip), vehicle: Klucel (hydroxypropylcellulose) (HPC) 111 % of control | dose: 50.0 mg/kg/injection, schedule: Q04DX002 (ip), vehicle: Klucel (hydroxypropylcellulose) (HPC) 95 % of control

COc1cc(C=C2c3ccccc3-c3ccccc32)ccc1O
inactive: [7] 91 % of control | [8] 99 % of control | [9] 91 % of control | dose: 200.0 mg/kg/injection, schedule: Q04DX003 (ip), vehicle: saline 91 % of control | [10] 91 % of control | dose: 400.0 mg/kg/injection, schedule: Q04DX003 (ip), vehicle: saline 91 % of control

CCCCOc1ccc(CC(N)C(=O)O)cc1N(CCCl)CCCl (stereo unspecified)
inactive: dose: 6.6 mg/kg/injection, schedule: Q01DX001 (ip), vehicle: carboxymethylcellulose (CMC) 111 % of control | dose: 10.0 mg/kg/injection, schedule: Q01DX001 (ip), vehicle: carboxymethylcellulose (CMC) 116 % of control | dose: 10.0 mg/kg/injection, schedule: Q01DX001 (ip), vehicle: saline 122 % of control | dose: 30.0 mg/kg/injection, schedule: Q01DX001 (ip), vehicle: saline 107 % of control | dose: 60.0 mg/kg/injection, schedule: Q01DX001 (ip), vehicle: saline 102 % of control | dose: 90.0 mg/kg/injection, schedule: Q01DX001 (ip), vehicle: saline 101 % of control

Cc1ccc(S(=O)(=O)OCCOCCOS(=O)(=O)c2ccc(C)cc2)cc1
inactive: [11] 100 % of control | [12] 104 % of control | [13] 100 % of control

CC(=NCC(=O)O)c1ccccc1
inactive: dose: 25.0 mg/kg/injection, schedule: Q01DX009 (ip), vehicle: saline 104 % of control | dose: 50.0 mg/kg/injection, schedule: Q01DX009 (ip), vehicle: saline 94 % of control | dose: 100.0 mg/kg/injection, schedule: Q01DX009 (ip), vehicle: saline 90 % of control | [8] 100 % of control

N#CN(Cc1ccccc1)Cc1ccccc1
inactive: [14] 100 % of control | [2] 101 % of control | [15] 105 % of control | [4] 102 % of control | [16] 109 % of control | [6] 95 % of control

O=C1c2ccccc2C2C(=O)c3ccccc3C12 (stereo unspecified)
inactive: [11] 98 % of control | [12] 96 % of control | [13] 95 % of control

COc1c2c(cc3c1N(C)C(=O)CC3C)C(C)CC(=O)N2 (stereo unspecified)
inactive: dose: 75.0 mg/kg/injection, schedule: Q04DX003 (ip), vehicle: Klucel (hydroxypropylcellulose) (HPC) 98 % of control

CCCCCC/C(=C\c1ccc(O)cc1)C(=O)O
inactive: [17] 97 % of control | [18] 103 % of control | [19] 105 % of control | [20] 100 % of control

O=C1C2=C(CCC2)c2ccccc21
inactive: [7] 103 % of control | [9] 96 % of control

CC1=C(c2ccccc2)C(c2ccccc2)=CC1=O
inactive: [17] 95 % of control | [18] 92 % of control | [19] 92 % of control | [20] 95 % of control

CC(C)(C)S(=O)(=O)C(C)(C)C
inactive: [21] 93 % of control | [22] 90 % of control | [23] 88 % of control

O=C(O)C1CC(c2ccccc2)=NN1c1ccccc1 (stereo unspecified)
inactive: [1] 104 % of control | [3] 90 % of control | [5] 93 % of control

CC1CCN(C(=O)Nc2cccc(C(F)(F)F)c2)CC1
inactive: [21] 94 % of control | [22] 97 % of control | [23] 91 % of control

Cc1cc([N+](=O)[O-])c2ccccc2c1N
inactive: [21] 117 % of control | [22] 98 % of control | [23] 105 % of control

CC1OC(n2ncc(=O)[nH]c2=O)C2OC(C)(C)OC2C1=O (stereo unspecified)
inactive: dose: 12.5 mg/kg/injection, schedule: Q01DX005 (ip), vehicle: distilled water + Tween-80 108 % of control | dose: 25.0 mg/kg/injection, schedule: Q01DX005 (ip), vehicle: distilled water + Tween-80 95 % of control | dose: 50.0 mg/kg/injection, schedule: Q01DX005 (ip), vehicle: distilled water + Tween-80 92 % of control | dose: 100.0 mg/kg/injection, schedule: Q01DX005 (ip), vehicle: distilled water + Tween-80 95 % of control | dose: 200.0 mg/kg/injection, schedule: Q01DX005 (ip), vehicle: distilled water + Tween-80 97 % of control

CC(=O)C(C(=N)C#N)C(=O)Nc1ccccc1 (stereo unspecified)
inactive: [11] 101 % of control | [12] 104 % of control | [13] 101 % of control

O=C(Nc1ccccc1)OC1CCC2CC21 (stereo unspecified)
inactive: dose: 50.0 mg/kg/injection, schedule: Q01DX009 (ip), vehicle: saline with Tween-80 91 % of control | [21] 87 % of control

CC(C)(C)C(O)c1ccccc1 (stereo unspecified)
inactive: dose: 25.0 mg/kg/injection, schedule: Q04DX002 (ip), vehicle: saline with Tween-80 97 % of control | dose: 50.0 mg/kg/injection, schedule: Q04DX002 (ip), vehicle: saline with Tween-80 93 % of control | dose: 100.0 mg/kg/injection, schedule: Q04DX002 (ip), vehicle: saline with Tween-80 93 % of control and 92 % of control | dose: 200.0 mg/kg/injection, schedule: Q04DX002 (ip), vehicle: saline with Tween-80 93 % of control and 95 % of control | dose: 400.0 mg/kg/injection, schedule: Q04DX002 (ip), vehicle: saline with Tween-80 95 % of control

O=CNc1ccc(C(=O)O)cc1
inactive: [21] 95 % of control | [22] 100 % of control | [23] 95 % of control

CCC1OC2(C)CCCC1O2 (stereo unspecified)
inactive: dose: 25.0 mg/kg/injection, schedule: Q01DX001 (ip), vehicle: saline sonified 111 % of control | dose: 50.0 mg/kg/injection, schedule: Q01DX001 (ip), vehicle: saline sonified 101 % of control | dose: 100.0 mg/kg/injection, schedule: Q01DX001 (ip), vehicle: saline sonified 122 % of control

COC1C(O)C(O)C(O)C(O)C1OS(=O)(=O)c1ccc(C)cc1 (stereo unspecified)
inactive: dose: 375.0 mg/kg/injection, schedule: Q01DX001 (ip), vehicle: carboxymethylcellulose (CMC) 105 % of control | dose: 750.0 mg/kg/injection, schedule: Q01DX001 (ip), vehicle: carboxymethylcellulose (CMC) 107 % of control | dose: 1500.0 mg/kg/injection, schedule: Q01DX001 (ip), vehicle: carboxymethylcellulose (CMC) 98 % of control

O=c1ccc(=O)n(-c2ccccc2)[nH]1
inactive: [14] 95 % of control | [2] 92 % of control | [15] 93 % of control | [4] 106 % of control | dose: 267.0 mg/kg/injection, schedule: Q04DX003 (ip), vehicle: Klucel (hydroxypropylcellulose) (HPC) 110 % of control | [16] 95 % of control | [6] 104 % of control | dose: 600.0 mg/kg/injection, schedule: Q04DX003 (ip), vehicle: Klucel (hydroxypropylcellulose) (HPC) 105 % of control

CCOC(=N)CCNS(=O)(=O)c1ccc(C)cc1
inactive: [7] 104 % of control | [9] 98 % of control | [10] 115 % of control

OCC1OC(n2nc(Cl)c3ccccc32)C(O)C1O (stereo unspecified)
inactive: dose: 50.0 mg/kg/injection, schedule: Q01DX005 (ip), vehicle: other 105 % of control | dose: 100.0 mg/kg/injection, schedule: Q01DX005 (ip), vehicle: other 102 % of control | dose: 200.0 mg/kg/injection, schedule: Q01DX005 (ip), vehicle: other 102 % of control
